Results taken from patent US20070128217A1 (priority 2003, published 2007).

Key:
[1] = system: control sera (pooled serum of ten healthy LUMC hospital workers; commercial negative donor pooled serum from the Dutch bloodbank); assay type: binding, human; set-up: Binding of Control serum LUMC to linear peptides / Binding of Control serum Blood-bank to linear peptides / Binding of Control serum LUMC to looped peptides / Binding of Control Serum Blood-Bank to Looped peptides / Binding of Control serum LUMC to linear peptides of the protein M of SARS-CoV Urbani / Binding of Control serum Blood-bank to linear peptides of the protein M of SARS-CoV Urbani / Binding of Control serum LUMC to looped peptides of the protein M of SARS-CoV Urbani / Binding of Control Serum Blood-Bank to Looped peptides of the protein M of SARS-CoV Urbani: unit not given here
[2] = system: rabbit serum obtained by immunizing a rabbit with the SARS-CoV strain Frankfurt 1; assay type: binding; set-up: Binding of a rabbit serum to linear peptides / Binding of a rabbit serum to looped peptides / Rabbit serum linear peptides / Rabbit serum looped peptides / Binding of a rabbit serum to linear peptides of protein N of SARS-CoV Urbani (Rabbit serum linear peptides) / Binding of a rabbit serum to looped/cyclic peptides of protein N of SARS-CoV Urbani (Rabbit serum looped peptides): unit not given here
[3] = system: antibodies in sera from SARS patients (sera 1a, 1b, 2, 6, 37, 62, London, SARS-yellow, SARS-green); assay type: binding, human; set-up: Binding of serum 6 to linear peptides of protein X1 of SARS-CoV Urbani / Binding of serum 37 to linear peptides of protein X1 of SARS-CoV Urbani / Binding of serum 6 to looped/cyclic peptide (PEPSCAN-ELISA) / Binding of serum 37 to looped/cyclic peptide (PEPSCAN-ELISA) / Binding of serum 37 to looped/cyclic peptides of protein X1 of SARS-CoV Urbani / Binding of serum 6 to linear peptides of protein X2 / Binding of serum 37 to linear peptides of protein X2 / Binding of serum 37 to looped/cyclic peptides of protein X2 of SARS-CoV Urbani / Binding of serum 6 to linear peptides of protein M of SARS-CoV Urbani / Binding of serum 37 to linear peptides of protein M of SARS-CoV Urbani / Binding of serum 6 to looped/cyclic peptides of protein M of SARS-CoV Urbani / Binding of serum 37 to looped/cyclic peptides of protein M of SARS-CoV Urbani / Binding of serum 6 to linear peptides of protein X3 of SARS-CoV Urbani / Binding of serum 37 to linear peptides of protein X3 of SARS-CoV Urbani / Binding of serum 37 to looped/cyclic peptides of protein X3 of SARS-CoV Urbani / Binding of serum 6 to linear peptides of protein X4 of SARS-CoV Urbani / Binding of serum 37 to linear peptides of protein X4 of SARS-CoV Urbani / Binding of serum 37 to looped/cyclic peptides of protein X4 of SARS-CoV Urbani / Binding of serum 6 to linear peptides of protein X5 of SARS-CoV Urbani / Binding of serum 37 to linear peptides of protein X5 of SARS-CoV Urbani / Binding of serum 37 to looped/cyclic peptides of protein X5 of SARS-CoV Urbani / Binding of serum 6 to linear peptides of protein N of SARS-CoV Urbani / Binding of serum 37 to linear peptides of protein N of SARS-CoV Urbani / Binding of serum 6 to linear peptide (PEPSCAN-ELISA) / Binding of serum 1a to looped/cyclic peptides of protein N of SARS-CoV Urbani / Binding of serum 1b to looped/cyclic peptides of protein N of SARS-CoV Urbani / Binding of serum 2 to looped/cyclic peptides of protein N of SARS-CoV Urbani / Binding of serum 6 to looped/cyclic peptides of protein N of SARS-CoV Urbani / Binding of serum 37 to looped/cyclic peptides of protein N of SARS-CoV Urbani / Binding of serum 62 to looped/cyclic peptides of protein N of SARS-CoV Urbani / Binding of serum London to looped/cyclic peptides of protein N of SARS-CoV Urbani / Binding of serum SARS-green to looped/cyclic peptides of protein N of SARS-CoV Urbani: unit not given here
[4] = system: recombinant human anti-SARS-CoV antibody 03-018; assay type: binding; set-up: Binding of antibody 03-018 to linear peptides of the N protein of SARS-CoV Urbani / Binding of antibody 03-018 to looped/cyclic peptides of the N protein of SARS-CoV Urbani: unit not given here

Row | Sequence | Binding of Control Serum Blood-Bank to Looped peptides [1] | Binding of Control serum Blood-bank to linear peptides [1] | Binding of Control serum LUMC to linear peptides [1] | Binding of Control serum LUMC to looped peptides [1] | Binding of a rabbit serum to linear peptides of protein N of SARS-CoV Urbani (Rabbit serum linear peptides) [2] | Binding of a rabbit serum to looped/cyclic peptides of protein N of SARS-CoV Urbani (Rabbit serum looped peptides) [2] | Binding of serum 1a to linear peptides of protein N of SARS-CoV Urbani [3] | Binding of serum 1a to looped/cyclic peptides of protein N of SARS-CoV Urbani [3] | Binding of serum 1b to linear peptides of protein N of SARS-CoV Urbani [3] | Binding of serum 1b to looped/cyclic peptides of protein N of SARS-CoV Urbani [3] | Binding of serum 2 to linear peptides of protein N of SARS-CoV Urbani [3] | Binding of serum 2 to looped/cyclic peptides of protein N of SARS-CoV Urbani [3] | Binding of serum 6 to looped/cyclic peptides of protein N of SARS-CoV Urbani [3] | Binding of serum 37 to looped/cyclic peptides of protein N of SARS-CoV Urbani [3] | Binding of serum 62 to looped/cyclic peptides of protein N of SARS-CoV Urbani [3] | Binding of serum London to looped/cyclic peptides of protein N of SARS-CoV Urbani [3] | Binding of serum SARS-green to looped/cyclic peptides of protein N of SARS-CoV Urbani [3] | Binding of serum SARS-yellow to looped/cyclic peptides of protein N of SARS-CoV Urbani [3] | Binding of antibody 03-018 to linear peptides of the N protein of SARS-CoV Urbani [4] | Binding of antibody 03-018 to looped/cyclic peptides of the N protein of SARS-CoV Urbani [4] | other results
1 | GGRNGARPKQRRPQG | 0.5 | 0.7 | 0.6 | 0.5 | 0.2 | 0.8 | 0.3 | 0.2 | 0.2 | 0.1 | 0.3 | 0.2 | 0.2 | 0.4 | 0.3 | 0.2 | 0.2 | 0.2 | 0.2 | 0.2 | Binding of serum 6 to linear peptides of protein N of SARS-CoV Urbani [3]: 0.2; Binding of serum 37 to linear peptides of protein N of SARS-CoV Urbani [3]: 0.7; Binding of serum 62 to linear peptides of protein N of SARS-CoV Urbani [3]: 0.8; Binding of serum London to linear peptides of protein N of SARS-CoV Urbani [3]: 0.5; Binding of serum SARS-green to linear peptides of protein N of SARS-CoV Urbani [3]: 2.6; Binding of serum SARS-yellow to linear peptides of protein N of SARS-CoV Urbani [3]: 0.6
2 | GKEELRFPRGQGVPI | 0.9 | 0.9 | 0.8 | 0.9 | 0.1 | 0.6 | 0.3 | 0.5 | 0.1 | 0.4 | 0.3 | 0.8 | 0.3 | 0.9 | 1.1 | 0.6 | 0.9 | 0.7 | 0.1 | 0.3 | Binding of serum 6 to linear peptides of protein N of SARS-CoV Urbani [3]: 0.2; Binding of serum 37 to linear peptides of protein N of SARS-CoV Urbani [3]: 0.7; Binding of serum 62 to linear peptides of protein N of SARS-CoV Urbani [3]: 0.7; Binding of serum London to linear peptides of protein N of SARS-CoV Urbani [3]: 0.5; Binding of serum SARS-green to linear peptides of protein N of SARS-CoV Urbani [3]: 0.6; Binding of serum SARS-yellow to linear peptides of protein N of SARS-CoV Urbani [3]: 0.6
3 | GKGQQQQGQTVTKKS | 0.6 | 0.9 | 1.0 | 0.7 | 0.2 | 0.4 |  | 1.4 |  | 0.6 |  | 0.7 | 0.4 | 0.5 | 0.6 | 0.4 | 0.6 | 0.5 | 0.1 | 0.2 | Binding of serum 1a to linear peptide (PEPSCAN-ELISA) [3]: 0.3; Binding of serum 1b to linear peptide (PEPSCAN-ELISA) [3]: 0.1; Binding of serum 2 to linear peptide (PEPSCAN-ELISA) [3]: 0.3; Binding of serum 6 to linear peptide (PEPSCAN-ELISA) [3]: 0.3; Binding of serum 37 to linear peptide (PEPSCAN-ELISA) [3]: 0.7; Binding of serum 62 to linear peptide (PEPSCAN-ELISA) [3]: 0.7; Binding of serum London to linear peptide (PEPSCAN-ELISA) [3]: 0.5; Binding of serum SARS-green to linear peptide (PEPSCAN-ELISA) [3]: 0.2; Binding of serum SARS-yellow to linear peptide (PEPSCAN-ELISA) [3]: 0.7
